# Measured values from patent US8492346B2, “Methods of use of epsilon inhibitor compounds for the attenuation of pain” (KAI Pharmaceuticals, Inc., priority 2007, dated 2013).
# Entries after “also recorded” stand apart in the source; their conditions may differ. Marks after values point to notes of the source that are not given here.
# How the values were obtained:
# [1] = Rat pharmacokinetics, plasma levels by sandwich-based ELISA; assay type: in vivo
# [2] = system: carrageenan-induced mechanical hyperalgesia; assay: Carrageenan inflammatory pain model, Randall-Selitto paw-withdrawal test; assay type: in vivo, rat; settings: for Mechanical hyperalgesia (PWT): FIG. 18
# Protocol: (§1) The nociceptive flexior reflex was quantified on lightly restrained rats by using a Basile Analgesymeter (Randall-Selitto test). Inflammatory hyperlagesia was induced by injection of Carr (1%, 5 uL, i.d.), which was injected unilaterally to the dorsum of the hindpaw one-hour prior to compound administration. The εPKC inhibitor peptide (εV1-2) was injected via systemic routes.
# as §1, with “μL,” for “uL,”, “one-hr” for “one-hour”
# The rat carrageenan model has been extensively used to evaluate the response to modulators of inflammatory pain. In the model used for the studies described below, a single 5 microL injection of a 1% solution of carrageenan into the plantar surface of the right hindpaw was used to elicit an inflammatory response resulting in local edema and mechanical hyperalgesia. The mechanical hyperalgesia was quantitated as previously described using measurements of the nociceptive flexion reflex (Randall-Selitto paw-withdrawal test) in response to mechanical painful stimulation at the site of carrageenan injection. […] In the absence of further treatment, the PWT remained stable at ˜55 g for several hours, making it possible to use this model to evaluate the time-course of the response to treatment over the course of at least six hours after the establishment of the disease state.
# incision pain = assay: Brennan incision model; assay type: in vivo; settings: preliminary, doses similar to carrageenan model
# Text: (§2) While experiments with these models are continuing, additional work is being done in other pain models.
# [3] = system: L5 nerve transection-induced allodynia and hyperalgesia; assay: Chung (L5 spinal nerve transection) neuropathic pain model; assay type: in vivo, rat
# Text: The Chung (L5 nerve transection) is a well-known model for chronic (neuropathic) pain. […]
# The activity of KAI-1678 has been evaluated in the L5 transection model or modified Chung model, is a mononeuropathic pain model in which the L5 spinal nerve is surgically transected, resulting in rapid development of sustained pain. The activity of KAI-1678 in this model is described below.
# The rat L5 spinal nerve transection model has been used to evaluate the response to modulators of neuropathic pain. In the studies described below surgical transaction of the L5 spinal nerve was used to elicit mechanical allodynia, mechanical hyperalgesia and thermal hyperalgesia that characterize neuropathic pain. In this model, the neuropathic effects develop within a day and are reported to last for 1-2 months.
# Mechanical allodynia and mechanical hyperalgesia are measured using calibrated von Frey filaments to elicit a flexion withdrawal response (paw withdrawal response) by pressing them against the plantar surface of the hindpaw on the same side as the nerve transection. The 2 g, 6 g and 10 g von Frey filaments are used to assess allodynia since these stimuli are normally innocuous to naïve animals. The 15 g, 26 g and 60 g filaments are used to assess algesia (response to noxious stimulus) since these stimuli elicit paw withdrawals in naïve animals and are considered to represent painful stimuli.
# The existence of the disease state following nerve transection is confirmed based on tests performed with the 2 g and the 10 g filaments.
# Once the disease state is confirmed, evaluation of the extent of mechanical allodynia or hyperalgesia is determined by observing the number of paw withdrawals in responsse to 5 tests with each of the von Frey filaments. Results are typically expressed either as the total number of paw withdrawals for the allodynic filaments (2 g, 6 g and 10 g for a total of 15 tests) or the algesic filaments (15 g, 26 g and 60 g for a total of 15 tests), or as the lowest filament to which the animals in a group have an average positive response defined as ≧3 withdrawals out of 5 tests with a particular filament. […]
# Rats given an L5 spinal nerve transection were treated with a bolus subcutaneous dose of KAI-1678 ranging from 0.00025-0.25 mcg/rat (˜0.001-1 mcg/kg) on day 7 post-transection. The degree of mechanical allodynia and hyperalgesia was evaluated based on the number of paw withdrawals (out of 30) in response to 6 different von Frey filaments before and up to 3 hours after administration of the compound.
# spared nerve pain = assay: Single spared nerve model; assay type: in vivo; settings: preliminary, doses similar to carrageenan model
# Text: as §2
# [4] = Dog toxicokinetics and tissue levels, 5-day subcutaneous infusion; settings: for Tissue level, Dose Site Muscle, Mean / Tissue level, Dose Site Skin, Mean / Tissue level, Kidney, Mean / Tissue level, Liver, Mean / Tissue level, Lung, Mean / Tissue level, Peripheral Nerve, Mean / Tissue level, Skeletal Muscle, Mean / Tissue level, Spinal Cord, Mean / Tissue level, Brain, Mean: 25 mg/kg/day sc infusion five days
# Text: The pharmacokinetics of KAI-1678 are being studied in rats administered the compound as an intravenous bolus and infusion or as a subcutaneous bolus and infusion. The toxicokinetics of KAI-1678 are being studied in dogs administered the compound as a subcutaneous infusion as part of the toxicity studies. In these studies, plasma levels of KAI-1678 have been determined using a sandwich-based ELISA assay developed at KAI Pharmaceuticals. The lower limit of quantitation of this assay is approximately 0.3 ng/mL. A similar assay has been developed to measure tissue levels of KAI-1678.
# As part of a range-finding toxicology study, 6 beagle dogs (one per sex per group) were administered continuous subcutaneous infusions of KAI-1678 for 5 days at dose levels of 3, 8 and 25 mg/kg/day. Blood samples were collected at various times on Day 1 (start of infusion) and Day 6 (after the end of infusion).
# As part of this study, tissues were harvested from a subset of the animals at the end of dosing.
# [5] = subcutaneous bolus 0.1 and 1 mcg/kg
substance,measurement,setting,value
Ac-EAVSLKPTGGYGRKKRRQRRR-NH2 [KAI-1678],Steady state plasma concentration,[1]; 2-hr intravenous infusion at 50 mcg/kg/hr,10 to 20 ng/mL
same,half-life,"[1]; rat, in vivo, iv, intravenous infusion, read-out: Terminal half-life",~25 min
same,Ability to reverse mechanical hyperalgesia in sympathectomized animals,"[2]; 25 mcg/kg/hr subcutaneous infusion, contralateral hindlimb, FIG. 24",abrogated
same,Carrageenan-induced mechanical hyperalgesia after sciatic and saphenous nerve transection,"[2]; 25 mcg/kg/hr subcutaneous infusion, contralateral limb, proximal or distal to transection, FIG. 23","effective at eliminating carrageenan-induced mechanical hyperalgesia when the site of compound administration was proximal, but not distal, to the site of nerve transection"
same,Carrageenan-induced mechanical hyperalgesia,"[2]; IV infusion, rates as high as 1000 mcg/kg/hr for as long as 5 hours, FIG. 22",had no effect on carrageenan-induced mechanical hyperalgesia
same,Mechanical hyperalgesia (PWT),"[2]; intradermal 10 mcg/kg, ipsilateral hindpaw",completely reverse the mechanical hyperalgesia
same,Mechanical hyperalgesia (PWT),"[2]; intradermal 10 or 100 mcg/kg, contralateral hindpaw",completely reverse the mechanical hyperalgesia
same,Time to complete reversal of mechanical hyperalgesia,"[2]; intradermal 100 mcg/kg, ipsilateral",≤ 5 min
same,Mechanical hyperalgesia (PWT),"[2]; intradermal 100 mcg/kg, ipsilateral hindpaw",increasing the PWT beyond the pre-carrageenan levels
same,Lowest dose completely reversing mechanical hyperalgesia,"[2]; subcutaneous bolus, contralateral hindlimb, for a short period",0.1 µg/kg
same,Pain response (mechanical hyperalgesia),"[2]; subcutaneous bolus, thigh of contralateral hindlimb, FIG. 19",dose-dependent suppression in the pain response
same,Reversal of pain,[2]; subcutaneous infusion 250 mcg/kg/hr,rapid and sustained without any recurrence of hyperalgesia
same,Effect on mechanical hyperalgesia,"[2]; subcutaneous infusion 25,000 mcg/kg/hr, data not shown",comparable to that seen with the 250 mcg/kg/hr infusion
same,"Mechanical hyperalgesia, first phase of subcutaneous infusion","[2]; subcutaneous infusion, first phase approximately one hour, FIG. 21",rapid and complete reversal of the mechanical hyperalgesia at all doses tested
same,Dose rate completely reversing mechanical hyperalgesia in second phase,"[2]; subcutaneous infusion, second phase two to three hours after start",≥ 25 µg/kg/h
same,Activity in Brennan incision model,incision pain,also active in these models
same,"Mechanical allodynia, 10 g filament","[3]; minipump 0.025 and 0.25 mcg/day, lasted until Day 7 post-pump implantation",nearly complete reversal of mechanical allodynia
same,Duration of anti-hyperalgesic effect,[3]; [5],at least 2 hours
same,"Mechanical hyperalgesia, 15 g, 26 g and 60 g von Frey filaments",[3]; [5],completely reverses mechanical hyperalgesia
same,Doses giving dose-dependent decrease in mechanical allodynia and mechanical hyperalgesia,"[3]; subcutaneous bolus, day 7 post-transection, FIG. 25",≥ 0.01 µg/kg
same,Potency relative to carrageenan-induced inflammatory pain model,[3]; subcutaneous infusion,about 1000 fold
same,Dose rates substantially reducing mechanical allodynia,"[3]; subcutaneous osmotic minipump, 10 g filament, FIG. 26",≥ 0.0025 µg/day
same,Activity in single spared nerve model,spared nerve pain,also active in these models
same,"Tissue level, Dose Site Muscle, Mean","[4]; Animal 4001, male",111 ng KAI-1678/g tissue
same,"Tissue level, Dose Site Skin, Mean","[4]; Animal 4001, male",1139 ng KAI-1678/g tissue
same,"Tissue level, Kidney, Mean","[4]; Animal 4001, male",689 ng KAI-1678/g tissue
same,"Tissue level, Liver, Mean","[4]; Animal 4001, male",224 ng KAI-1678/g tissue
same,"Tissue level, Lung, Mean","[4]; Animal 4001, male",254 ng KAI-1678/g tissue
same,"Tissue level, Peripheral Nerve, Mean","[4]; Animal 4001, male",429 ng KAI-1678/g tissue
same,"Tissue level, Skeletal Muscle, Mean","[4]; Animal 4001, male",133 ng KAI-1678/g tissue
same,"Tissue level, Spinal Cord, Mean","[4]; Animal 4001, male",11 ng KAI-1678/g tissue
same,"Tissue level, Brain, Mean","[4]; Animal 4001, male, includes a data point below limit of quantitation",6* ng KAI-1678/g tissue
same,"Tissue level, Brain, Mean","[4]; Animal 4501, female",7 ng KAI-1678/g tissue
same,"Tissue level, Dose Site Muscle, Mean","[4]; Animal 4501, female",1003 ng KAI-1678/g tissue
same,"Tissue level, Dose Site Skin, Mean","[4]; Animal 4501, female",6165 ng KAI-1678/g tissue
same,"Tissue level, Kidney, Mean","[4]; Animal 4501, female",3054 ng KAI-1678/g tissue
same,"Tissue level, Liver, Mean","[4]; Animal 4501, female",1505 ng KAI-1678/g tissue
same,"Tissue level, Lung, Mean","[4]; Animal 4501, female",1364 ng KAI-1678/g tissue
same,"Tissue level, Peripheral Nerve, Mean","[4]; Animal 4501, female",155 ng KAI-1678/g tissue
same,"Tissue level, Skeletal Muscle, Mean","[4]; Animal 4501, female",33 ng KAI-1678/g tissue
same,"Tissue level, Spinal Cord, Mean","[4]; Animal 4501, female",140 ng KAI-1678/g tissue
same,Clearance from systemic circulation / plasma level after end of infusion,"[4]; subcutaneous infusion over 5 days, 3, 8 and 25 mg/kg/day",rapidly cleared from the systemic circulation; also recorded: declined quickly upon cessation of infusion
same,Levels in brain and spinal cord,"[4]; subcutaneous infusion over 5 days, end of infusion",consistently low
